Columns and labels:
HCV IRES = test: Ratio of Core protein to RNA transcript as indicator of HCV IRES translational activity; format: cell-based, Hepatitis C virus; details: GCV resistant colonies, compared with control Rz BR1
Description: However, to eliminate differences in expression of the retroviral transcript (harboring the 5′ UTR Core transcript) between different Rz vector transduced cells, we used the ratio between expressed Core protein and RNA transcript levels as an indicator of HCV IRES translational activity.

HCV Core protein = details: for core protein expression, reduced to % of control RzBR1 transduced cells: GCV-resistant cells, remaining level relative to control RzBR1
Description: Upon construction of the retroviral vector pLHPM a cassette translating the HCV Core protein via the HCV IRES was placed into the 3′ part of the LTR transcript. Thereby, cells transduced with the library or single Rz candidates could be analyzed for the HCV Core protein expression by Western blotting. Western blotting was performed on protein lysates using an enhanced chemiluminescent blotting detection kit (Novex), and anti-HCV core monoclonal antibody (6C7 provided by Harry Greenberg, Stanford University). Blots were exposed to film and band intensities measured using a phosphoimager and ImageQuant software. […] Band volumes of HCV Core protein in Western blotting were analyzed by densitometry, normalized towards beta-actin and expressed as percentage relative to the control (RzBR1).

[1] = system: LTR-Core and HSV-tk transcripts; test: Northern blotting of LTR-Core, HSV-tk and GAPDH transcripts; format: cell-based; details: normalized to GAPDH, relative to control Rz transduced 5′tk cells
Description: To assure that the observed reductions in Core protein were not caused by reduced levels of RNA transcript, Northern blotting analysis was performed on […] extracted from stable Rz expressors after GCV selection. Total RNA (15 μg per lane) extracted from cultures at 80% confluency was separated by formaldehyde/1% agarose gel electrophoresis and transferred to nylon membrane. The RNAs were probed for different parts of the two vector derived transcripts expressed in these cells: probes were directed against the tk part of the bicistronic transcript or against the Core portion of the retroviral vector transcript respectively. −^32P dCTP labelled probes were hybridized to the membrane in Quickhyb solution (Stratagene) at 65° C. After washing in 2×SSC/0.1%SDS and exposure to film, quantitation of signal was achieved by phosphimager analysis and computer-assisted denistometry as for the Western procedure. Levels of LTR-Core (4.8 kb) and HSV-tk (2.8 kb) transcripts were normalized to signals derived from GAPDH and expressed as percentage of the signal obtained from control Rz transduced 5′tk cells.

[2] = target: Herpes simplex virus thymidine kinase (HSV-tk) (Human herpesvirus 1, UniProt P0DTH5); details: cited from earlier work
Chain of Herpes simplex virus thymidine kinase (HSV-tk) (P0DTH5 whole entry): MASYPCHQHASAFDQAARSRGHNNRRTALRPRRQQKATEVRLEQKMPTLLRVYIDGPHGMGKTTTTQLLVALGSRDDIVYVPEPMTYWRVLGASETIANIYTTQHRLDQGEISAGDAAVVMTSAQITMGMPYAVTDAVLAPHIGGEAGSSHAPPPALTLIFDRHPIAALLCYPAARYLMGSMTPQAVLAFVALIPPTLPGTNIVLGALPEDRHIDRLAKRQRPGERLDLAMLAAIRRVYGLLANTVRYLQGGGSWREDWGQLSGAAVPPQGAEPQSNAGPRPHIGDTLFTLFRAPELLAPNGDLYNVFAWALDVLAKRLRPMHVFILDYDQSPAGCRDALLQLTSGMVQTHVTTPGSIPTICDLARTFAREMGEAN

HeLa 5′tk cells = test: GCV-mediated cell killing of HSV-tk expressing HeLa 5′tk cells; format: cell-based
Description: The Hela cell line used in these experiments was modified with a bicistronic reporter gene that confers hygromycin B resistance and GCV […]. The bicistronic reporter gene pHyg-5′tk was constructed with the SV40 promoter driving the expression of hygromycin B phosphotransferase and the 5′ untranslated region of HCV (nucleotides (nt) 38-341) upstream of HSV thymidine kinase (HSV-tk, see FIG. 1). The 5′ nontranslated region of hepatitis C virus (HCV) functions as an internal ribosome entry site (IRES) and is essential for translation of HCV proteins. Transcription of the 5′ nontranslated region allows for IRES-mediated translation of HSV-tk, which converts GCV to the monophosphate which is further metabolized to the triphosphate a cytotoxic analog of GTP. […]
Translation of HSV-tk-mediated by HCV 5′UTR (cap-independent, HCV nucleotides 38-341) was confirmed by Western blotting analysis of the tk protein. […] The functional activity of tk was determined by administration of GCV to the cell culture medium. […] To confirm that tk expression was mediated by HCV IRES and not from read-through translation of the hygromycin gene, two control plasmids were generated that were identical to the parental, except for deletion of part of the 5′UTR necessary for IRES function. […]

untransfected HeLa cells = test: GCV application to untransfected HeLa cells or cells expressing Core protein in place of tk; format: cell-based; details: GCV 10-100 uM
Description: Translation of HSV-tk-mediated by HCV 5′UTR (cap-independent, HCV nucleotides 38-341) was confirmed by Western blotting analysis of the tk protein. The vector was designed such that the authentic HCV Core protein translation start site (AUG at position 342 of the viral RNA) serves as the translation initiation site for the tk gene. The functional activity of tk was determined by administration of GCV to the cell culture medium. […] To confirm that tk expression was mediated by HCV IRES and not from read-through translation of the hygromycin gene, two control plasmids were generated that were identical to the parental, except for deletion of part of the 5′UTR necessary for IRES function. A reporter cell line was generated by electroporation of HeLa cells with pHyg-5′tk and selected with 250 μg/ml hygromycin. Single cell clones of stable HSV-tk expressing cells (HeLa 5′tk cells) were obtained according to standard limited dilution cloning techniques and functionally characterized for GCV-mediated cell killing.

Compound	reduction of HCV IRES-dependent translatability (ratio Core protein/RNA transcript) (HCV IRES)	core protein expression, reduced to % of control RzBR1 transduced cells (HCV Core protein)	better substrate for HSV-tk compared to mammalian tk [2]	also measured
HCV6: hairpin ribozyme, SEQ ID NO:52; targets human eIF2Bγ mRNA (TTCTTATTAGAAAGCTACCAGAGAAACACACGTTGTGGTACATTACCTGGTA; chemistry not given here)	83%	52%	–	–
HCV8: hairpin ribozyme conferring GCV resistance, SEQ ID NO:54 (AGCCGAGGAGAATCCCACCAGAGAAACACACGTTGTGGTACATTACCTGGTA; chemistry not given here)	–	–	–	decrease (reduction) in Core protein compared to control Rz transduced cells (HCV Core protein; GCV resistant colonies, normalized to beta-actin, relative to control RzBR1): 95%; reduction of Core transcript [1]: 20%
O=c1[nH]c(=O)n([C@@H]2O[C@H](CO)[C@@H](O)[C@@H]2F)cc1I [FIAU, 1-(2″-deoxy-2′-fluoro-1-β-D-arabinofuranosyl-5-ido)uracil]	–	–	about 1000 fold	–
HCV4: hairpin ribozyme, SEQ ID NO:50; binding sequence partially matches gamma subunit of human eIF2 (CTAACTTTAGAAACTAACCAGAGAAACACACGTTGTGGTACATTACCTGGTA; chemistry not given here)	76%	42%	–	–
Nc1nc(O)c2ncn(COC(CO)CO)c2n1 [GCV, [9-(1,3-dihydroxy-2-propoxy)methly] guanine]	–	–	about 1000 fold	cell death on continuous GCV application (HeLa 5′tk cells; continuous GCV 10-100 uM, HSV-tk expressing HeLa cells): complete cell death; GCV killing of selected HeLa 5′tk clone (HeLa 5′tk cells; exposure to 20 uM GCV): completely killed; effect of GCV application on tk-negative cells (untransfected HeLa cells): remained unaffected
